Data as given in US20230123334A1, “AMINO LIPID COMPOUND, PREPARATION METHOD THEREFOR, AND APPLICATION THEREOF” (SHENZHEN SHENXIN BIOTECHNOLOGY CO., LTD., priority 2020, published 2023).

Legend:
Format in all cases: cell-based
MCF7 cells [1] = assay: Transfection of MCF7 cell line, DNA vectors; design: concentration or dose not given beside the values; settings: plasmid DNA, GFP cells / total cells
In short: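 Read-out: GFP-positive cells as % of all Hoechst-stained nuclei after 96-well transfection of MCF7 cells grown in serum-supplemented DMEM. Positive control was Lipofectamine2000, used per manufacturer's protocol.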

Hela cells [2] = assay: Transfection of Hela cell line, mRNA vectors; settings: 50 ng EGFP mRNA per well
In short: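 Transfection efficiency was scored as GFP-fluorescent cells over Hoechst-stained total nuclei, with Lipofectamine2000 as reference reagent. Each well of HeLa cells, grown in DMEM plus 10% FBS, received 50 ng EGFP mRNA.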

[3] = system: embryonic stem cells (hESC2); assay: Screening as DNA vectors in embryonic stem cells, flow cytometry; settings: 75 ng plasmid DNA, 48 hours after transfection, flow cytometer
Description: (§1) Cell line: embryonic stem cells (hESC2, cultured according to reported methods: Stem Cells, 2005, 23, 544-549)
(§2) Medium: mTeSR1 (STEMCELL)
(§3) Mode of screening: cell transfection on 96-well plates
(§4) Detection (readout): percentage of the number of GFP fluorescent cells relative to the total number of cells. Lipofectamine Stem was used as the positive control.
Method: an 8-channel pipette was used for sample addition. The contents shown were for a single well of a 96-well flat plate.
1. Stem cells were cultured to 3-5×10^4 cells per well in a 96-well plate treated with matrigel.
2. The compound (0.01 mmol) prepared in Example 1 was dissolved in 1 mL of anhydrous ethanol. After ultrasonically dissolved, 10 μL of the resultant amino lipid solution in ethanol was taken and mixed with 5 μL of DOPE solution in ethanol ([…]). The obtained mixture was then added with 35 μL of 0.2 M sodium acetate buffer (pH 5.6), and vortexed at a constant rotating speed for 30 s. Then, 4 μL was taken from the obtained product and added to 46 μL of 0.02 M sodium acetate buffer (pH 5.6), and vortexed at a constant rotating speed for 30 s to form a liposome solution. 5 μL of this liposome solution was mixed with 75 ng of plasmid DNA (pSin-EGFP-IRES-Puro) dissolved in 5 μL of 0.02 M sodium acetate buffer, and allowed to stay at room temperature for 30 min to form a lipid/DNA transfection complex.
3. 10 μL of the lipid/DNA transfection complex was incubated at room temperature for 30 min, followed by addition of 90 μL mTeSR1 medium was added and mixing with a pipette. 100 μL of the mixture was added to separate wells of a 96-well culture plate and placed in an incubator containing 5% CO2 at 37° C.
4. 48 hours after transfection, the cells were digested with 0.05% Trypsin-EDTA. The cells were resuspended in a PBS buffer and filtered. The cell suspension was placed in a flow cytometer and the number of GFP-expressing cells in no less than 2000 cells was measured so as to obtain the absolute efficiency of cell transfection. The relative efficiency of cell transfection was obtained by comparing the cell transfection efficiency with the positive control Lipofectamine Stem.

cardiomyocytes [4] = assay: Screening as mRNA vectors in cardiomyocytes; settings: 50 ng EGFP mRNA per well
Procedure: Cell line: cardiomyocytes (obtained from induced differentiation of hESC according to reported methods: J Mol. Cell. Cardiol. 2011, 51, 288-298)
(§5) Medium: DMEM supplemented with 10% fetal bovine serum (Invitrogen)
as §3
(§6) Detection (readout): percentage of the number of GFP fluorescent cells relative to the total number of cells (the total number of cells was determined using nucleus dye Hoechst). Lipofectamine Stem (Invitrogen) was used as the positive control, according to the manufacturer's instructions.
Method: the experimental method was basically the same with Example 4, and the mass of EGFP mRNA for transfection was 50 ng per well.

[5] = system: embryonic stem cells (hESC2); assay: Screening as mRNA vectors in embryonic stem cells; settings: 50 ng EGFP mRNA per well
Procedure: as §1, §2
Mode of screening: cell transfection on 96-well plate
as §4
Method: the experimental method was basically the same with Example 10, and the mass of EGFP mRNA for transfection was 50 ng per well.

Hela cells [6] = assay: Transfection of Hela cell line, DNA vectors; settings: 75 ng plasmid DNA, GFP cells / total cells
In short: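 Amino lipid/DOPE liposomes in sodium acetate pH 5.6 were complexed with 75 ng psin-EGFP-IRES-Puro plasmid for 30 min at room temperature, then mixed with 3-5×10^4 Hela cells in DMEM/10% FBS at 37° C. Hoechst stain after 20-24 h, imaging after a further 20-24 h. Efficiency = GFP-positive cells / total nuclei.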

MCF7 cells [7] = assay: Transfection of MCF7 cell line, mRNA vectors; settings: 50 ng EGFP mRNA per well
In short: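 Efficiency was scored as the fraction of GFP-fluorescent cells over all Hoechst-counted cells after delivery of 50 ng EGFP mRNA per well. Cells were MCF7 grown in serum-supplemented DMEM, and Lipofectamine2000 served as reference.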

cardiomyocytes [8] = assay: Screening as DNA vectors in cardiomyocytes; design: concentration or dose not given beside the values; settings: method as Example 4
Procedure: Cell line: cardiomyocytes (obtained from induced differentiation of hESC according to reported methods: J. Mol. Cell. Cardiol. 2011, 51, 288-298)
as §5, §3, §6
Method: the experimental method was basically the same with Example 4.

| Compound | Absolute DNA transfection efficiency in MCF7 cells (MCF7 cells [1]) [%] | Absolute mRNA transfection efficiency in Hela cells (Hela cells [2]) [%] | Absolute DNA transfection efficiency in embryonic stem cells [3] [%] | Absolute mRNA transfection efficiency in cardiomyocytes (cardiomyocytes [4]) [%] | Absolute mRNA transfection efficiency in embryonic stem cells [5] [%] | Absolute DNA transfection efficiency in Hela cells (Hela cells [6]) [%] | Absolute mRNA transfection efficiency in MCF7 cells (MCF7 cells [7]) [%] | Absolute DNA transfection efficiency in cardiomyocytes (cardiomyocytes [8]) [%] |
| --- | --- | --- | --- | --- | --- | --- | --- | --- |
| CCCCCCCCCCCCSc1nc(NCCN2CCN(C)CC2)nc(SCCCCCCCC)n1 [Compound S8S12D5] | 26.3 | 12.4 | 1.7 | 2.5 | 24.9 | 12.4 | 32.6 | 2.4 |
| CCCCCCCCCCCSc1nc(NCCCCCCCC)nc(NCCCN2CCN(C)CC2)n1 [Compound S11N8D9] | 20.9 | 11.9 | 3.6 | 25.8 | 34.8 | 11.7 | 42.3 | 0.1 |
| CCCCCCCCCCCNc1nc(NCCN2CCCC2)nc(SCCCCCCCC)n1 [Compound S8N11D3] | 3.6 | 26.2 | 0.2 | 6.2 | 2.4 | 26.2 | 8.0 | 0.5 |
| CCCCCCCCCCCSc1nc(NCCCCCCCCC)nc(NCC2CCN(C)CC2)n1 [Compound S11N9D10] | 48.7 | 16.2 | 0.5 | 29.6 | 39.3 | 16.2 | 36.6 | 16.4 |
| CCCCCCCCCCCSc1nc(NCCCCCCCC)nc(NCCN2CCCC2)n1 [Compound S11N8D3] | 17.7 | 12.9 | 4.3 | 24.5 | 12.8 | 12.9 | 8.6 | 0.2 |
| CCCCCCCCCCCCNc1nc(NCCN2CCN(C)CC2)nc(SCCCCCCCCC)n1 [Compound S9N12D5] | 13.7 | 24.1 | 2.5 | 25.5 | 10.5 | 24.1 | 16.6 | 4.0 |
| CCCCCCCCCCCNc1nc(NCCCN(C)C)nc(SCCCCCCCC)n1 [Compound S8N11D6] | 18.0 | 50.2 | 0.2 | 5.3 | 1.9 | 50.1 | 6.7 | 1.4 |
| CCCCCCCCCCCSc1nc(NCCN2CCN(C)CC2)nc(SCCCCCCCC)n1 [Compound S8S11D5] | 48.3 | 5.9 | 2.4 | 2.7 | 21.1 | 5.9 | 30.6 | 0.5 |
| CCCCCCCCCCCSc1nc(NCCCCCCCC)nc(NCCCN(C)C)n1 [Compound S11N8D6] | 9.3 | 18.4 | 1.7 | 7.9 | 2.0 | 18.4 | 11.0 | 6.7 |
| CCCCCCCCCCCNc1nc(NCCN2CCN(C)CC2)nc(SCCCCCCCC)n1 [Compound S8N11D5] | 16.7 | 26.5 | 1.1 | 3.7 | 1.6 | 26.5 | 9.1 | 3.0 |
| CCCCCCCCCCCCNc1nc(NCCCN2CCOCC2)nc(SCCCCCCCCC)n1 [Compound S9N12D8] | 6.2 | 6.8 | 1.1 | 2.1 | 11.1 | 6.8 | 0.7 | 1.5 |
| CCCCCCCCCCCNc1nc(NCCCN2CCOCC2)nc(SCCCCCCCC)n1 [Compound S8N11D8] | 4.4 | 6.8 | 0.7 | 1.9 | 1.0 | 6.8 | 0.1 | 2.1 |
| CCCCCCCCCCCCSc1nc(NCCCN2CCN(C)CC2)nc(SCCCCCCCC)n1 [Compound S8S12D9] | 13.1 | 1.7 | 2.9 | 14.0 | 16.3 | 1.7 | 5.3 | 1.0 |
| CCCCCCCCCCCSc1nc(NCCCN(C)C)nc(SCCCCCCCC)n1 [Compound S8S11D6] | 56.8 | 3.9 | 1.6 | 18.4 | 10.3 | 3.9 | 46.3 | 1.0 |
